Here are results for one compound from US20250137059A1, “ACTIVATED RAS AS THERAPEUTIC AND DIAGNOSTIC TARGET FOR NEUROFIBROMATOSIS AND USE THEREOF” (THE ASAN FOUNDATION, priority 2021, published 2025).

Structures are written as SMILES.

Holding throughout (assay type): cell-based, human
Assay [1] concerns phosphorylated ERK (p-ERK). Nature of the assay: Electrophoresis comparison of p-ERK expression in fibroblasts upon Ataluren treatment (FIG. 4). The settings on record: Ataluren 20 μg/ml or 30 μg/ml, electrophoresis (FIG. 4); for expression of p-ERK: fibroblasts of neurofibromatosis patients in which the activity of Ras proteins has been decreased. How it is done: (§1) The skin fibroblasts from donated normal individuals and neurofibromatosis patients were treated with Ataluren at concentrations of 20 μg/ml and 30 μg/ml and cultured, in a DMEM supplemented with 10% FBS and 1% penicillin-streptomycin. When the cells were cultured until the density reached 70% to 80% of a container, the medium was replaced with an FBS-free medium, and the cells were cultured and underwent a starvation process for 24 hours. Next, the cells were transferred to an FBS-containing medium, treated with EGF, which is a Ras activator, by dilution to a concentration of 100 ng/ml, and then allowed for a reaction at 37° C. for 5 minutes to prepare each sample. Measurement of the activity of Ras proteins in each sample was performed in the same manner as described in Example 2.
(§2) The same protein of which the Ras activity was measured in Example 3 was subjected to electrophoresis by using NuPAGETM 4-12% Bris-Tris Gel (Invitrogen).

For another assay, the system named is p-ERK protein. The assay can be described thus: Expression ratios of ERK and p-ERK on membrane with ERK and p-ERK antibodies (FIG. 5). The settings on record: Ataluren 20 μg/ml or 30 μg/ml (FIG. 5). How it is done:
as §1, §2
To more accurately compare the ERK activity, the electrophoresed proteins were transferred to a hybond-ECL membrane, and the membrane was blocked with 3% skim milk. Next, ERK and p-ERK antibodies were reacted on the membrane at 4° C. for 24 hours, and then washed by using TBST three times. […] The expression ratios of ERK and p-ERK in the washed membrane were measured.

In assay [2] the test system is GTP-bound and activated RAS (Ras-GTP) protein. The assay can be described thus: G-LISA Ras activation assay in skin fibroblasts after EGF stimulation upon Ataluren treatment. The settings on record: skin fibroblasts of neurofibromatosis patients (NF1 stop codon mutation) with increased Ras activity compared to normal individuals; Ataluren 20 μg/ml and 30 μg/ml (FIG. 3: 30 μg/ml); EGF 100 ng/ml. The protocol: The skin fibroblasts from donated normal individuals and neurofibromatosis patients were cultured in a DMEM supplemented with 10% FBS and 1% penicillin-streptomycin. When the cells were cultured until the density reached 70% to 80% of a container, the medium was replaced with an FBS-free medium, and the cells were cultured and subjected to a starvation process for 24 hours. Next, the cells were transferred to an FBS-containing medium, treated with epidermal growth factor (EGF), which is a Ras activator, by dilution to a concentration of 100 ng/ml, and then allowed for a reaction at 37° C. for 5 minutes to prepare each sample. To analyze the activity of the RAS proteins, a G-LISA Ras activation assay biochem Kit of Cytoskeleton Company (Absorbance Based) (Cytoskeleton, Cat No. BK131), which enables the measurement of a small number of cells and a large number of cells at the same time by compensating for the disadvantages of the pull-down assay, was used.
Briefly, in a method of analyzing the activity of the RAS proteins, cells were lysed by using a cell lysis solution included in the kit after treatment with EGF, only the supernatant was obtained, and the proteins contained in the supernatant were quantified. […] Next, an HRP detection reagent was added and a reaction was allowed for 15 minutes at room temperature to measure the absorbance at 490 nm. […]

The mark [3] stands for this setting: fibroblasts of normal individuals.

Consider `O=C(O)c1cccc(-c2noc(-c3ccccc3F)n2)c1` [Ataluren, 3-[5-(2-fluoro-phenyl)-[1,2,4]oxadiazol-3-yl]-benzoic acid], for which the results for the “expression of p-ERK” value in assay [1] and in assay [1] (listed as ataluren) were “decreased” and “significantly decreased”, respectively. The “expression of phosphorylated ERK (p-ERK)” value in assay [1] (setting [3]) was “no change”. For the same compound, the “expression of p-ERK (expression ratios of ERK and p-ERK)” value in the assay on p-ERK protein (fibroblasts of neurofibromatosis patients in which the activity of Ras proteins has been decreased) is on record as “decreased”. Also, in the assay with p-ERK protein (setting [3]), the “expression level of p-ERK protein (expression ratios of ERK and p-ERK)” value is on record as “slightly increased”. Moreover, the “signal of Ras-GTP (activity of Ras proteins)” value in assay [2] is “significantly decreased”.
